Data set [1] deals with hypertensive action by angiotensin II. As to the kind of experiment: Inhibition on the hypertensive action by an exogenous angiotensin II in conscious rats. The class given is in vivo, Spraque-Dawley (SD) male rats. As to conditions: oral; for ED50: Rattus norvegicus, within 6 hours after administration, read-out: ED50 (dose required for inhibiting the hypertensive action by angiotensin II to the extent of 50%); for inhibitory effect on the hypertensive action by angiotensin II: dose of 1 mg/kg or less, angiotensin II 0.1 μg/kg i.v. An excerpt:
(§1) The angiotensin II antagonistic activities in vitro were compared on the basis of the intensities (pA2 value) of antagonizing the contraction response to angiotensin II at the isolated thoracic aorta of rabbit. The in vivo activities were examined by comparing the inhibitory effects on the hypertensive action by an exogenous angiotensin II in a non-anesthetized rat and the hypotensive effects of a renal hypertensive rat or a spontaneously hypertensive rat.
Anesthetized Spraque-Dawley (SD) male rats were cannulated into a femoral artery and a femoral vein and used for the experiment at the time when it has elapsed at least 24 hours after the operation. The hypertensive action caused by angiotensin II (0.1 μg/kg) which has been administered through the vein catheter was measured under conscious and unrestrained condition before and after administration of the compound. The artery catheter was connected to a pressure transducer to measure a mean blood pressure, and the subject compounds were orally administered in the form of a homogeneous suspension in a 0.5% aqueous carboxymethyl cellulose solution.
The intensities of the inhibitory effects within 6 hours after administration of the compound were examined on the basis of the dose of the compound required for inhibiting the hypertensive action by angiotensin II to the extent of 50% (ED50 values).

Data set [2] deals with electric shock induced amnesia mice. The data set can be described thus: Cognitive enhancing effect, step through passive avoidance in electric shock induced amnesia mice. The class given is in vivo, ddY strain male mice. As to conditions: oral, 10 μg/kg. The protocol:
In order to examine the influence of the compounds on the learning and memory facilitating, an amnesia model with use of electric shock in a step through type passive avoidance box (PA-M5 model; OBARA IKA-SANGYOSHA) in accordance with the method described by C. Giurgea et al. (Progressive of Neuropsychopharmacology, 1, 235-247 (1977)) was used.
The subject compounds were orally administered at a dose of 1 ng/kg -1 mg/kg in the form of a homogeneous suspension in a 0.5% aqueous carboxymethylcellulose solution to ddY strain male mice (4-5 weeks) 1 hour before acquisition-trial and 1 hour before retrievaltrial. The animal was first placed in the light chamber, and the door at the boundary between the light and dark chamber was opened after 30 seconds. At the same time as the animal stepped into the dark chamber, electric footshock (40 V) was delivered to the floor of the dark chamber so that the animal acquired avoidance response (acquisition-trial). […] That is, the animal was placed again in the light chamber, the door was opened after 30 seconds, and the latency of the animal into the dark -chamber was measured for up to 600 seconds, so that the time was compared with that of the solvent administered group in which amnesia had been caused by electric shock.

Data set [3] has as its target T1, contraction response to angiotensin II at the isolated thoracic aorta of rabbit (Oryctolagus cuniculus, UniProt P34976).
T1 construct: A strip of thoracic aorta of a male rabbit (2.5-3.0 kg) was prepared by the usual method; from tissue; host or cells: rabbit thoracic aorta strip
T1 sequence (P34976 1-359): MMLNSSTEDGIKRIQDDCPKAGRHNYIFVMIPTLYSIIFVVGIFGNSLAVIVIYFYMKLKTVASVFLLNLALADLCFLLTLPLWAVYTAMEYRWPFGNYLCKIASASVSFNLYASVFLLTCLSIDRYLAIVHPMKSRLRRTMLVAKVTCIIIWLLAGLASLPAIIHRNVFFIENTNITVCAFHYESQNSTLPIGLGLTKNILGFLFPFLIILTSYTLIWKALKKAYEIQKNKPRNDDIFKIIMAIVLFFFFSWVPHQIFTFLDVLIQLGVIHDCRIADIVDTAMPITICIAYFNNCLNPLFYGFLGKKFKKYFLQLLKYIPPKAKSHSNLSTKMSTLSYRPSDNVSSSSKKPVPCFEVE
As to the kind of experiment: In vitro angiotensin II antagonism, isolated rabbit thoracic aorta (Schild pA2). The class given is cell-based. To be noted: Schild plot.
Source text: as §1
A strip of thoracic aorta of a male rabbit (2.5-3.0 kg) was prepared by the usual method and suspended in an organ bath containing well oxygenated Krebs-Henseleit solution at 37° C. The pA2 value was calculated according to the method described by H. O. Schild (British Journal of Pharmacology and Chemotherapeutics, 2, 189-206, 1947). A strip treated with 3-5 doses of a subject compound in an amount of 10^-6 M-10^-10 M and a strip treated with no drug were employed for obtaining a dose-response curve by angiotensin II. Log (dose ratio--1) was calculated from the shift of the dose-response curve of the subject compound, and pA2 value was obtained from the Schild plottings.

The nature of data set [4]: Toxicity test, oral, mice. As to conditions: mouse, in vivo, ddY male mice 5 weeks old. The procedure: Several compounds of the present invention represented by the general formula (I) were administered orally by compulsion to ddY male mice of 5 weeks old (average weight, ca. 20 g).
Data set [5] relates to spontaneously hypertensive rats. As to the kind of experiment: Hypotensive effect in spontaneously hypertensive rats (SHR). Format: in vivo, male spontaneously hypertensive rats. As to conditions: oral, 10 mg/kg. The procedure: The subject compounds were administered orally in the same manner as in the paragraph 1-3 to male spontaneously hypertensive rats (28 weeks old, Charles-River Co.), which were measured mean blood pressure and heart rate.

A further data set deals with Renal hypertensive rats. As to the kind of experiment: Hypotensive effect in renal hypertensive rats (RHR). Format: in vivo, Spraque-Dawley (SD) male rats. As to conditions: oral, 3 mg/kg. The procedure: Renal hypertensive rats, a model of high-renin hypertension, were prepared according to the method of J. L. Cangiano et al. (Journal of Pharmacology and Experimental Therapeutics, 208, 310-313, 1979). That is, the experiment was conducted with Spraque-Dawley (SD) male rats (250-300 g), which were ligated the left renal artery with a thread under the anesthetic condition, so that the systolic blood pressure was increased more than 150 mmHg on 1 week after the operation. The subject compounds were orally administered in the form of a homogeneous suspension in a 0.5% aqueous carboxymethylcellulose solution, and a mean blood pressure was measured in the same manner as in the paragraph 1-2. Heart rate was counted with a cardiotachmeter triggered by the arterial pulse.

In a further data set the test system is ddY male mice. The data set can be described thus: Antianxiety effect, light and dark box. To be noted: oral, 0.1 μg/kg, 1 hour. Format: in vivo. The procedure:
(§2) The subject compounds were examined on their antianxiety effect with the light and dark box according to the method described by B. Costall et al. (Pharmacology Biochemistry and Behavior, 32, 777-785, 1989) and with the elevated plus maze by S. Pell et al. (Journal of Neuroscience Methods, 14, 149-167, 1985).
The subject compounds were administered orally to ddY male mice (4-5 weeks old) at a dose of 0.1-1000 μg/kg. After 1 hour they were placed in the light chamber of the light and dark box, and after 10 seconds the door at the boundary between the light chamber and the dark chamber was opened. The behavior of the animals in the light and dark box under a sound-proof condition for four minutes was observed and examined by comparing the measurements of latency to the dark chamber, shuttling between the light and dark chambers and duration in the light chamber with those in the group to which only a solvent was administered. The subject compounds were orally administered in the form of a homogeneous suspension or solution in a 0.5% aqueous carboxymethyl cellulose solution.

Another data set has as its system SD female rats. As to conditions: rat, in vivo, po, 100 mg/kg.
The subject of another data set is Fisher 344 male rats. As to the kind of experiment: Antianxiety effect, elevated plus maze. As to conditions: oral, 1 μg/kg, 1 hour. Format: in vivo. The procedure: as §2
To Fisher 344 male rats (5-6 weeks old), the subject compounds were orally administered at a dose of 1-100 μg/kg in the form of a homogeneous suspension or solution in a 0.5% aqueous carboxymethyl cellulose solution. Among the four arms of the elevated plus maze (a device in which four arms are intersected crosswise and connected together at a height of 50 cm from the floor), the two arms with side walls are referred to as closed arms and the two arms without side walls are referred to as open arms. […] As the indices of the behavior, the latency until stepped out from the arm first placed to the other arm and the durations in the respective arms were measured, and the other behaviors were recorded. Diazepam was used as a control agent, and the drug administered group and the solvent administered group (group to which a 0.5% aqueous carboxymethyl cellulose solution was administered)were compared for the behaviors.

A value given as a limit tells only on which side of the number the result lay.

In the case of `COc1c(OCc2ccc(-c3ccccc3-c3nnn[nH]3)cc2)cc(C)nc1C` [Example 11, 3-methoxy-2,6-dimethyl-4-[2'-(tetrazol-5-yl)biphenyl-4-yl]methoxypyridine], in [1], the ED50 is 0.54 mg/kg and the “inhibitory effect on the hypertensive action by angiotensin II” value is “significant inhibitory effects”. In data set [2], the “latency into the dark chamber (passive avoidance response)” value is listed as “significant prolongation of the latency into the dark chamber”. The same compound had a Kb in data set [3] of 6.31 nM. For the same compound, the LD50 in data set [4] is greater than 1000 mg/kg. Also, in data set [5], the “depression of blood pressure” value is “approximately 20%” and the hypotensive effect result was “significant hypotensive effect”. For the same compound, in the data set with Renal hypertensive rats, the “depression of blood pressure” value was 20-26% and the hypotensive effect entry is listed as “significant long-lasting hypotensive effect”. In addition, in the data set on ddY male mice, the “duration in the light chamber” value was “increased” and the “latency to the dark chamber” value was “increased”.

With `CCOC(=O)c1c(OCc2ccc(-c3ccccc3-c3nnn[nH]3)cc2)cc(C)nc1CC` [Example 45, 3-ethoxycarbonyl-2-ethyl-6-methyl-4-[2'-(tetrazol-5-yl)-biphenyl-4-yl]methoxypyridine], in data set [1], the median effective dose (ED50) is 0.52 mg/kg and the “inhibitory effect on the hypertensive action by angiotensin II” value is on record as “significant inhibitory effects”. Further, the symptom of toxicity entry with SD female rats is on record as “no symptom of toxicity was observed”. Further, the Kb in data set [3] is 6.76 nM. Also, the LD50 in data set [4] is greater than 1000 mg/kg. Also, in the data set on Fisher 344 male rats, the “duration out of the closed arm” value is on record as “increasing tendency” and the transitions result is “significant increase”. Moreover, in [5], the “depression of blood pressure” value is “approximately 20%” and the hypotensive effect entry is reported as “significant hypotensive effect”. Moreover, in the data set on Renal hypertensive rats, the “depression of blood pressure” value is reported as 20-26% and the hypotensive effect entry was “significant long-lasting hypotensive effect”.

What is called ED50 is the midpoint of the dose-response relation. A word on the Kb: it is the affinity of an antagonist, worked out from how it opposes an agonist. The LD50 is the dose expected to kill half of the subjects tested. A lower LD50 goes with greater toxicity.
